One series deals with TNF-α. The note with it: peptide from T7 phage display library; cited from earlier work. From the text:
Peptide-based TNF-α inhibition has garnered attention in recent years, as studies have shown that peptides may help treat inflammatory diseases. In a study conducted in 2023, a nine amino acid-long peptide targeting TNF-α was discovered using a T7 phage display library. […] OB1 also attenuated TNF-α-induced cell death based on morphological examination (Figure 8). […] Thus, C87 is used as a positive control in many TNF-α inhibitor studies.

A further series has as its target rhTNF-α (Homo sapiens, UniProt P01375). The series is described as follows: Microscale thermophoresis (MST) binding to labeled rhTNF-α. The note with it: labeled rhTNF-α 20 nM, PBS, mean ± SD of three replicates. The protocol: MST was performed using a Monolith NT.115 Pico instrument (NanoTemper Technologies, Munich, Germany). In this technique, thermophoresis applied by irradiation with an infrared (IR) laser diode disrupts a ligand-target binding interaction that has equilibrated. The concentration of fluorescent molecules can be altered by the direct movement of molecules within a temperature gradient. The effect on the fluorescence signal is monitored continuously over time.
Experiments were performed using the Monolith Protein Labeling Kit RED-NHS 2nd Generation and Monolith NT.115 Premium Capillaries at Pico-RED 80% excitation power and medium MST power with thermophoresis. Mixtures of labeled molecules and functional peptides or TNFR1 were prepared in PBS. Labeled molecules were maintained at 20 nM for the peptide binding experiments, and the ligand concentrations varied according to the molecule with 16 serial dilutions. The peptide-labeled molecule mixture was loaded into the glass capillaries after 20 min incubation in the dark. Results were analyzed using M.O. Affinity Analysis v.2.3 software.
(In general: Microscale thermophoresis detects binding through changes in fluorescence in a small temperature gradient.)

In series [1] the test system is TNF-α-induced L929 cell death. The experiment in a line: TNF-α neutralization test (TNF-α-induced cytotoxicity, MTT) on L929 cells. The series is classed as cell-based, mouse. The protocol: (§1) The TNF-α neutralizing activity of designed peptides and adalimumab molecules was compared with cell-based bioactivity assays. L929 cells were cultured in DMEM supplemented with 10% FBS and 1% P/S in a humidified 5% CO2 incubator at 37 °C [43].
(§2) In the TNF-α neutralization test, 3 × 10^4 cells in 100 μL were seeded into 96-well tissue culture plates and incubated at 37 °C in a 5% CO2 incubator for 24 ± 2 h. After incubation, cells were stimulated with 2 μg/mL actinomycin D and 1 ng/mL TNF-α in the presence of diluted concentrations of adalimumab and functional peptides ranging from 1 pM to 10 μM for 24 ± 2 h. […] TNF-α neutralizing activity was also examined by microscopy in a 24-well plate. Both the cytotoxicity effect and neutralizing activity of the OB1 peptide were visually examined by fluorescence microscopy (Zeiss AxioVert A, Oberkochen, Germany). OB1 and adalimumab were administered at a concentration of 1 μM with 1 ng/mL TNF-α.

Series [2] concerns L929 cells. Type of series: cell-based, mouse. The note with it: 1 μM with TNF-α (1 ng/mL) and actinomycin D, microscopy. The protocol: as §2
Series [3] relates to L929 cells. The experiment in a line: MTT cytotoxicity of peptides on L929 cells. The series is classed as cell-based, mouse. The note with it: at 10,000 nM (10 μM). The protocol: as §1
Cytotoxicity of peptides was determined using the 3-(4,5-dimethylthiazol-2-yl)-2,5 diphenyltetrazolium bromide (MTT) cell proliferation assay. Briefly, 3 × 10^4 cells in 100 μL were seeded into 96-well tissue culture plates and incubated at 37 °C in a 5% CO2 incubator for 24 ± 2 h. Peptide concentrations were diluted from 1 pM to 10 μM and measured in triplicate. The following kit protocol and absorbance were measured at 550 nm and 690 nm using a microplate reader (Gen5 Synergy HT BioTek, Winooski, VT, USA).

One may read the Kd as the free concentration of one partner at which half of the binding sites on the other are occupied at equilibrium, for simple one-to-one binding. A word on the IC50: it is the concentration that gives 50% inhibition.

Read-outs that look alike come from different tables or passages of the source. Where no end group is shown, it is not given here.

Sequence of rhTNF-α (P01375 77-233 limits assumed): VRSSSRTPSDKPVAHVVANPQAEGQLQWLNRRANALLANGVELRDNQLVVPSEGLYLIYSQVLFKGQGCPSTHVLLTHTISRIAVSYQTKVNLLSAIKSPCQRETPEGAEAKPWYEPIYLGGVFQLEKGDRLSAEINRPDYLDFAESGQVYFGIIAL

Take “ACHAWAPTR [pep2, nine amino acid-long peptide targeting TNF-α from a T7 phage display library]”: the Kd on TNF-α is 5140 nM.

In turn, Adalimumab had a dissociation constant Kd at rhTNF-α of 0.0211 ± 0.0036 nM. This substance also returned an IC50 in series [1] of 3.85 nM. Further, in series [1] (L929 cells, 10,000 nM, 1 ng/mL TNF-α and actinomycin D), the “survival rate in TNF-α neutralization” value is listed as ~80%. Moreover, the “cell survival by morphology with TNF-α and actinomycin D” value in the series with L929 cells [2] was “enhanced cell survival”.

Turning to KGGGSGGGSGGGSRKEMGQV-NH2 [OB2], on rhTNF-α, the affinity, expressed as Kd, was 46.7 nM. Also, the “survival rate in TNF-α neutralization” value in series [1] (2 h, 10000 nM) was ~80%.

Substance KGGGSGGGSHIHDDLLRYYGW-NH2 [OB1] had a Kd on rhTNF-α of 300 nM. Besides, the “survival rate in TNF-α neutralization” value in series [1] (2 h, 10000 nM) is listed as ~80%. In series [1] (mouse), this substance registered an IC50 of 4.6 nM.

KRWSRYFWVDMTGTR-NH2 [OB8] showed a Kd at rhTNF-α of 3890 ± 4540 nM. Also, in the series with L929 cells [3], the “cytotoxicity (in words)” value was “non-toxic”.

The record behind these values is paper PMC12024540, “Peptide-Based Regulation of TNF-α-Mediated Cytotoxicity” (Biomolecules, 2025).
